Measurements published in patent US20060194819A1, “Activation specific inhibitors of nf-kb and method of treating inflammatory processes in cardio-vascular diseases” (PROCORDE GMBH, priority 2003, published 2006).

Legend:
Solubility in PBS = format: physicochemical
IKK-complex = target: T1, IKK-complex (Homo sapiens, UniProt O14920+O15111+Q9Y6K9); assay: Cellular IKK kinase assay: HeLa cells treated with compound, TNF alpha stimulation, IKK-complex immunoprecipitated with anti-NEMO-antibody, I kappaB peptide phosphorylation by alpha screen; format: cell-based; settings: HeLa cells, compound 1 h, TNF alpha 20 ng/ml, alpha screen; read-out: IC50 for inhibition of IKK-activity (I kappaB peptide phosphorylation)
T1 construct: IKK-complex was immunoprecipitated with anti-NEMO-antibody; endogenous in cells; host or cells: HeLa
Experimental: Kinase Assay Protocol: HeLa cells were maintained in Dulbecco's modified Eagle's medium (Invitrogen) supplemented with 10% fetal bovine serum, 2 mM L-glutamine, penicillin (50 units/ml) and streptomycin (50 μg/ml). 24 h before treatment with different compounds HeLa cells were plated at a density of 5×10^6 per well in 100-mm cell culture dishes to 90% confluences.
The cells were incubated with different drugs at the concentration indicated for 1 h, washed twice with PBS and stimulated with 20 ng/ml TNF alpha (Roche). After 7 min the cells were washed twice with ice cold PBS followed by scraping and transferring into a 1.5 ml microcentrifuge tube. After centrifugation by 2000 rpm for 2 min by 4° C. the PBS supernatant was removed and 200 μl Lyse-buffer (10 mM Hepes, pH 7.9, 0.1% NP40, 10 mM, 300 mM Sucrose, 10 mM KCl, 15 mM MgCl2, 1 mM DTT, 0.5 mM PMSF and antipain, aprotinin, leupeptin each 0.75 μg/ml (Sigma) was added to the pellet. The resuspended pellet was incubated on ice for 5 min and centrifuged at 13000 g for 30 s. The supernatant, cytosolic extract, was added to 200 μl TNT-buffer (200 mM NaCl, 20 mM Tris/HCl pH 7.5, 1% Triton X-100). Unspecific binding was blocked by incubation with 3 μg of normal rabbit IgG (Sigma) and 6 mg resuspended and prewashed Protein A Sepharose CI-4B (Pharmacia Biotech) for 30 min by 4° C. followed by immunoprecipitation for 1.5 h at 4° C. with 2 μg of anti-NEMO-antibody (Santa Cruz Biotechnology) and 6 mg resuspented and prewashed Protein A Sepharose CI-4B (Parmacia Biotech). […] 6.6 μl of detection-buffer (20 mM Hepes pH 7.5, 100 mM NaCl, 1% Tween, 0.1 mM BSA, 50 μg/ml Protein A-Acceptor beads, 250 μg/ml Streptavidin-Donor beads (both Perkin-Elmer), 4 nM anti-phospho-IKB antibody (Santa Cruz Biotechnology) was dispensed to each well. After incubation for 1.5 h the plate was measured by alpha screen reader (Perkin Elmer). […]

T1 sequence (O14920 whole entry): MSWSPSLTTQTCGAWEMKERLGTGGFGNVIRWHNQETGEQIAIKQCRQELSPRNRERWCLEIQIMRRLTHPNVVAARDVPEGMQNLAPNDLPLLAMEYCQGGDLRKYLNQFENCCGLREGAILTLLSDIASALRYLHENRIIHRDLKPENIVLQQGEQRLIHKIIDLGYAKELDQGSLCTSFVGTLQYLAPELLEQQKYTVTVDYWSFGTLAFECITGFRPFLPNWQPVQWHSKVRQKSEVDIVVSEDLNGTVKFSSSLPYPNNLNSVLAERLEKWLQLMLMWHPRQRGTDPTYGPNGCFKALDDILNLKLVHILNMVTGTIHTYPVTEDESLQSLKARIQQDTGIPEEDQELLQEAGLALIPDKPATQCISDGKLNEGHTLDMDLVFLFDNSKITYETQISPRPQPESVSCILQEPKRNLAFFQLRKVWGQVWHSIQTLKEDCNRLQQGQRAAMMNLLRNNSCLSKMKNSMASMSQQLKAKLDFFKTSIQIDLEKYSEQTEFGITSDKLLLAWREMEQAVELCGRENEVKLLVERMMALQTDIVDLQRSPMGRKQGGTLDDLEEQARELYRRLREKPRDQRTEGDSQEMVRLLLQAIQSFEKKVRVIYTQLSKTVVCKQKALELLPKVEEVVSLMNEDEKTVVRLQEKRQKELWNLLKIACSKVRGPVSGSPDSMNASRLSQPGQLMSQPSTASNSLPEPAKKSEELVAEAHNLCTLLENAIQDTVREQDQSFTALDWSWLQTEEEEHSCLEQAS
T1 sequence (O15111 whole entry): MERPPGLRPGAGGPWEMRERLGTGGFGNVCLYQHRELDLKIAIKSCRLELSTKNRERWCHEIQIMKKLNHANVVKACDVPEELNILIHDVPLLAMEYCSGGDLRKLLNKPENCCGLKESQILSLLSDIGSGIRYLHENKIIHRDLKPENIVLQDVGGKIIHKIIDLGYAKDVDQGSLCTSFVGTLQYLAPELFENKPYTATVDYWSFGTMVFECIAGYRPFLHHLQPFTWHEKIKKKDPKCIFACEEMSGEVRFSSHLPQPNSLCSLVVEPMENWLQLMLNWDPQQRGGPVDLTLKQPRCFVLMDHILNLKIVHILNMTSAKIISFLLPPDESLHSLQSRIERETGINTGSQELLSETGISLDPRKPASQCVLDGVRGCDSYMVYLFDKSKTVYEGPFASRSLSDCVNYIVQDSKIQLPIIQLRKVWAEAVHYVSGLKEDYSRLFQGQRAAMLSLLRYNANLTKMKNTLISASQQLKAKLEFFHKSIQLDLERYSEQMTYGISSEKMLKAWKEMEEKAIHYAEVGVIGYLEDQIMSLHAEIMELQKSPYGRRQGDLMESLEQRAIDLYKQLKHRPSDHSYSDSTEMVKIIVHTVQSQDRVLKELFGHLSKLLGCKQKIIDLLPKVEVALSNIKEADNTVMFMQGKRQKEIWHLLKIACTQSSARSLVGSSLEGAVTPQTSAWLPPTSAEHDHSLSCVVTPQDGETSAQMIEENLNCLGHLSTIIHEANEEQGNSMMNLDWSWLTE
T1 sequence (Q9Y6K9 whole entry): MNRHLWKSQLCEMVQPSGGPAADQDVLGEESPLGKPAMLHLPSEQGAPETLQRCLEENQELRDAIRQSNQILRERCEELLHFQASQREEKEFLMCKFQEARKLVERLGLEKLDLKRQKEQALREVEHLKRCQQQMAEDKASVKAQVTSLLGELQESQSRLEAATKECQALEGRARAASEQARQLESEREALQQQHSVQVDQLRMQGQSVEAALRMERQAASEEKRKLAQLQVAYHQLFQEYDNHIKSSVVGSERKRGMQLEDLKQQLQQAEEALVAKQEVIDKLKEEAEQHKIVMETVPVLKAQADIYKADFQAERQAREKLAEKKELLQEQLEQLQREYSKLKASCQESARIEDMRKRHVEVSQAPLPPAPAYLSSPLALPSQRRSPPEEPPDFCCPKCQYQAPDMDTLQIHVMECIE

solubility in PBS (Solubility in PBS): only partly soluble
IC50 (IKK-complex): 10 to 100 µM
Compound: CCC(=O)C1=C(C)N=c2s/c(=C/c3cc(C)c(OCc4ccccc4Cl)c(I)c3)c(=O)n2C1c1ccc2c(c1)OCO2 (centres unmarked) [Compound 41]
